How the values were obtained:
human LPA1 receptor = target: T1, human LPA1 receptor (Homo sapiens, UniProt Q92633); test: Binding test of GTPγS to LPA1 receptor; format: biochemical; conditions: membrane fraction of RH 7777 cells expressed with human LPA1 receptor; LPA 100 nM; read-out: IC50: concentration of the test compound which inhibits the binding of LPA1 receptor and [35S]GTPγS by 50%
T1 construct: purchased ChanTest A324; host or cells: RH 7777 cells (recombinant expression; membrane fraction)
Method: Binding test of GTPγS to LPA1 receptor
5 μg of the membrane fraction of RH 7777 cells expressed with human LPA1 receptor (A324, ChanTest) was suspended in a reaction buffer (20 mM HEPES, 100 mM NaCl, 10 mM MgCl2, 10 μM GDP, 5 μg saponin, 0.2% BSA, 0.1 nM [^35S]GTPγS (NEG030X, Perkin Elmer), pH 7.4), and the test compound dissolved in DMSO in various concentrations was added. After preincubation at 30° C. for 15 minutes, LPA (L7260, Sigma, the final concentration of 100 nM) was added, and the suspension was incubated at 30° C. for 30 minutes. The membrane fraction was collected onto a glass fiber filter (GF/B, Whatman) by using a cell harvester (M30, Brandel), and washed with a 10 mM phosphate buffer (pH 7.4). The radioactivity of the membrane fraction was measured using a liquid scintillation analyzer (2900TR, Packard) and the concentration of the test compound which inhibits the binding of LPA1 receptor and [^35S]GTPγS by 50%, (1050) was determined by non-linear regression analysis using EXSAS (version 7.6.0, Arm Systex).

[1] = tested on: A2058 human melanoma cells; test: Cell migration test (LPA-induced, Chemo-Tx); format: cell-based; conditions: LPA 100 nM, 3 hours, read-out: IC50: concentration of the test compound which inhibits the cell migration activity of LPA by 50%
Procedure, shortened: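 A2058 cells, serum-starved 24 h, pretreated 15 min at 37° C with compound (0.5% DMSO final). Migration over 3 h at 37° C through fibronectin-coated filters toward 100 nM LPA (final). Migrated cells stained, absorbance at 570 nm; IC50 from non-linear regression.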

[2] = tested on: LPA-induced histamine release; test: LPA-induced histamine release test in mouse; format: in vivo; conditions: male CD1 mice; oral dose of 10 mg/kg; LPA 300 μg/mouse via tail vein 4 hours after administration; blood 2 minutes after LPA; read-out: efficacy rate (rate of individuals which showed the inhibition rate of 80% or more of plasma histamine)
Method: LPA-Induced Histamine Release Test in Mouse
LPA-induced histamine release test in mouse was carried out according to a method by Swaney et al. (The Journal of Pharmacology and Experimental Therapeutics, 336 (2011), pages 693-700). The test compound was suspended in 0.5% methylcellulose solution (133-14255, Wako), and orally administered to male CD1 mice (body weight: 30 to 40 g, supplied by Charles River Laboratories Japan) at a dose of 10 mL/kg. 4 hours after administration, LPA (857130P, Avanti) dissolved in a 0.1% BSA-containing PBS was administered via the tail vein (300 μg/mouse). Immediately, the mouse was anesthetized with isoflurane, and blood was collected via a vein 2 minutes after the administration of LPA. The blood was put into a test tube containing EDTA, and centrifuged at 4° C., 2,000×g, for 10 minutes to obtain the plasma.
The histamine concentration in the plasma was measured by EIA kit (62HTMPEB, Cisbio Bioassays).

T1 sequence (Q92633 whole entry): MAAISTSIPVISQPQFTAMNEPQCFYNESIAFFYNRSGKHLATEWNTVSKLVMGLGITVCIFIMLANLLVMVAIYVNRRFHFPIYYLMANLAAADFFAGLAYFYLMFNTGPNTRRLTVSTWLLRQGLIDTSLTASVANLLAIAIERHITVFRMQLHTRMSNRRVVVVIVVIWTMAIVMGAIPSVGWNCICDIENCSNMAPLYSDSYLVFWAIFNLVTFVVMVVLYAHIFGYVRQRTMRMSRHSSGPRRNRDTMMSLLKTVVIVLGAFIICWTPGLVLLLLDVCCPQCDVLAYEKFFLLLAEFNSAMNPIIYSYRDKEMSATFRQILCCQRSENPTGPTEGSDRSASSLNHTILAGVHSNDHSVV

SMILES | IC50 (human LPA1 receptor) [nM] | IC50 [1] [nM] | responders at 10 mg/kg [2] [%]
C[C@@H](OC(=O)Nc1cc(Cl)sc1-c1ccc(-c2ccc(C3(C(=O)O)CC3)cc2)cc1)c1ccccc1F [I-28, (R)-1-{4′-[5-Chloro-3-({[1-(2-fluorophenyl)ethoxy]carbonyl}amino)thiophen-2-yl]-[1,1′-biphenyl]-4-yl}cyclopropanecarboxylic acid] | ≤ 200 | ≤ 200 | ≥ 50
C[C@@H](OC(=O)Nc1cc(Cl)sc1-c1ccc(-c2ccc(C3(C(=O)O)CC3)cc2)cc1)c1ccc(Cl)cc1 [I-56, (R)-1-{4′-[5-Chloro-3-({[1-(4-chlorophenyl)ethoxy]carbonyl}amino)thiophen-2-yl]-[1,1′-biphenyl]-4-yl}cyclopropanecarboxylic acid] | ≤ 200 | ≤ 200 | ≥ 50
C[C@@H](OC(=O)Nc1cc(F)sc1-c1ccc(-c2ccc(C3(C(=O)O)CC3)cc2)cc1)c1ccccc1 [I-100, (R)-1-[4′-(5-Fluoro-3-{[(1-phenylethoxy)carbonyl]amino}thiophen-2-yl)-[1,1′-biphenyl]-4-yl]cyclopropanecarboxylic acid] | ≤ 200 | ≤ 200 | ≥ 50
C[C@@H](OC(=O)Nc1cc(F)sc1-c1ccc(-c2ccc(C3(C(=O)O)CC3)cc2)cc1)c1ccc(F)cc1Cl [I-152, (R)-1-{4′-[3-({[1-(2-Chloro-4-fluorophenyl)ethoxy]carbonyl}amino)-5-fluorothiophen-2-yl]-[1,1′-biphenyl]-4-yl}cyclopropanecarboxylic acid] | ≤ 200 | ≤ 200 | ≥ 50
C[C@@H](OC(=O)Nc1cc(F)sc1-c1ccc(-c2ccc(C3(C(=O)O)CC3)cc2)cc1)c1ccccc1Cl [I-122, (R)-1-{4′-[3-({[1-(2-Chlorophenyl)ethoxy]carbonyl}amino)-5-fluorothiophen-2-yl]-[1,1′-biphenyl]-4-yl}cyclopropanecarboxylic acid] | ≤ 200 | ≤ 200 | ≥ 50
C[C@@H](OC(=O)Nc1cc(F)sc1-c1ccc(-c2ccc(C3(C(=O)O)CC3)cc2)cc1)c1ccc(Cl)cc1 [I-126, (R)-1-{4′-[3-({[1-(4-Chlorophenyl)ethoxy]carbonyl}amino)-5-fluorothiophen-2-yl]-[1,1′-biphenyl]-4-yl}cyclopropanecarboxylic acid] | ≤ 200 | ≤ 200 | ≥ 50
Cc1ccccc1[C@@H](C)OC(=O)Nc1cc(Cl)sc1-c1ccc(-c2ccc(C3(C(=O)O)CC3)cc2)cc1 [I-60, (R)-1-{4′-[5-Chloro-3-({[1-(o-tolyl)ethoxy]carbonyl}amino)thiophen-2-yl]-[1,1′-biphenyl]-4-yl}cyclopropanecarboxylic acid] | ≤ 200 | ≤ 200 | ≥ 50
C[C@@H](OC(=O)Nc1cc(Cl)sc1-c1ccc(-c2ccc(C3(C(=O)O)CC3)cc2)cc1)c1ccccc1Cl [I-52, (R)-1-{4′-[5-Chloro-3-({[1-(2-chlorophenyl)ethoxy]carbonyl}amino)thiophen-2-yl]-[1,1′-biphenyl]-4-yl}cyclopropanecarboxylic acid] | ≤ 200 | ≤ 200 | ≥ 50

Reference: patent US10597375B2, “Halogen-substituted heterocyclic compound” (UBE INDUSTRIES, LTD., priority 2012, dated 2020)
